34 compounds from patent US20060211755A1, “3-oxo-1, 3-dihydro-indazole-2-carboxylic acid amide derivatives as phospholipase inhibitors” (Eli Lilly and Company Patent Division, priority 2003, published 2006) can be followed below.

The term melting point denotes the temperature, or range, at which the solid turns liquid.

On to `CCCNC(=O)n1[nH]c2ccccc2c1=O` [Example 1, 3-Oxo-1,3-dihydro-indazole-2-carboxylic acid propylamide], for which the melting point was 153 to 155 °C.
As for `CCCCCNC(=O)n1[nH]c2ccccc2c1=O` [Example 2, 3-Oxo-1,3-dihydro-indazole-2-carboxylic acid pentylamide], the figure is 119 to 120 °C.
In turn, `CC(C)CCCCNC(=O)n1[nH]c2ccccc2c1=O` [Example 5, 3-Oxo-1,3-dihydro-indazole-2-carboxylic acid (5-methyl-hexyl)-amide] displayed a melting point of 134 to 136 °C.
Take `Cc1ccccc1CNC(=O)n1[nH]c2ccccc2c1=O` [Example 16, 3-Oxo-1,3-dihydro-indazole-2-carboxylic acid 2-methyl-benzylamide]: the melting point was 166 to 168 °C.
Then `Cc1cccc(CNC(=O)n2[nH]c3ccccc3c2=O)c1` [Example 17, 3-Oxo-1,3-dihydro-indazole-2-carboxylic acid 3-methyl-benzylamide], with 179 to 180 °C; and `COc1cccc(CNC(=O)n2[nH]c3ccccc3c2=O)c1` [Example 24, 3-Oxo-1,3-dihydro-indazole-2-carboxylic acid 3-methoxy-benzylamide], with 186 to 188 °C.
With `Cc1ccc2c(=O)n(C(=O)NCc3ccccc3C)[nH]c2c1` [Example 45, 6-Methyl-3-oxo-1,3-dihydro-indazole-2-carboxylic acid 2-methyl-benzylamide], the melting point was 235 °C (dec.).
Then `Cc1ccccc1CNC(=O)n1[nH]c2cccc(C(=O)O)c2c1=O` [Example 52, 2-(2-Methyl-benzylcarbamoyl)-3-oxo-2,3-dihydro-1H-indazole-4-carboxylic acid], with above 250 °C.
Then `Cc1ccccc1CNC(=O)n1[nH]c2ccc(C(=O)O)cc2c1=O` [Example 53, 2-(2-Methyl-benzylcarbamoyl)-3-oxo-2,3-dihydro-1H-indazole-5-carboxylic acid], with above 250 °C; and `Cc1ccccc1CNC(=O)n1[nH]c2c(C(=O)O)cccc2c1=O` [Example 55, 2-(2-Methyl-benzylcarbamoyl)-3-oxo-2,3-dihydro-1H-indazole-7-carboxylic acid], with above 250 °C; and `Cc1ccc(F)cc1CNC(=O)n1[nH]c2cccc(C(=O)O)c2c1=O` [Example 57, 2-(5-Fluoro-2-methyl-benzylcarbamoyl)-3-oxo-2,3-dihydro-1H-indazole-4-carboxylic acid], with 230 °C (dec.).
Regarding `Cc1ccc(F)cc1CNC(=O)n1[nH]c2c(C(=O)O)cccc2c1=O` [Example 58, 2-(5-Fluoro-2-methyl-benzylcarbamoyl)-3-oxo-2,3-dihydro-1H-indazole-7-carboxylic acid], the melting point is above 250 °C.
Then `Cc1cccc(C)c1CNC(=O)n1[nH]c2cccc(C(=O)O)c2c1=O` [Example 59, 2-(2,6-Dimethyl-benzylcarbamoyl)-3-oxo-2,3-dihydro-1H-indazole-4-carboxylic acid], with above 250 °C; and `Cc1cccc(C)c1CNC(=O)n1[nH]c2c(C(=O)O)cccc2c1=O` [Example 60, 2-(2,6-Dimethyl-benzylcarbamoyl)-3-oxo-2,3-dihydro-1H-indazole-7-carboxylic acid], with above 250 °C; and `CCc1cccc(C)c1CNC(=O)n1[nH]c2cccc(C(=O)O)c2c1=O` [Example 61, 2-(2-Ethyl-6-methyl-benzylcarbamoyl)-3-oxo-2,3-dihydro-1H-indazole-4-carboxylic acid], with above 250 °C.
Then `CCc1cccc(C)c1CNC(=O)n1[nH]c2ccc(C(=O)O)cc2c1=O` [Example 62, 2-(2-Ethyl-6-methyl-benzylcarbamoyl)-3-oxo-2,3-dihydro-1H-indazole-5-carboxylic acid], with above 250 °C; and `CCc1cccc(C)c1CNC(=O)n1[nH]c2cc(C(=O)O)ccc2c1=O` [Example 63, 2-(2-Ethyl-6-methyl-benzylcarbamoyl)-3-oxo-2,3-dihydro-1H-indazole-6-carboxylic acid], with above 250 °C.
The compound `CCc1cccc(C)c1CNC(=O)n1[nH]c2c(C(=O)O)cccc2c1=O` [Example 64, 2-(2-Ethyl-6-methyl-benzylcarbamoyl)-3-oxo-2,3-dihydro-1H-indazole-7-carboxylic acid] returned a melting point above 250 °C.
Then `CCCCc1ccc(CNC(=O)n2[nH]c3cccc(C(=O)O)c3c2=O)c(C)c1` [Example 68, 2-(4-Butyl-2-methyl-benzylcarbamoyl)-3-oxo-2,3-dihydro-1H-indazole-4-carboxylic acid], with 173 to 175 °C; and `CCc1cccc(CC)c1CNC(=O)n1[nH]c2cccc(C(=O)O)c2c1=O` [Example 69, 2-(2,6-Diethyl-benzylcarbamoyl)-3-oxo-2,3-dihydro-1H-indazole-4-carboxylic acid], with above 250 °C.
Then `CCc1cccc(CC)c1CNC(=O)n1[nH]c2c(C(=O)O)cccc2c1=O` [Example 70, 2-(2,6-Diethyl-benzylcarbamoyl)-3-oxo-2,3-dihydro-1H-indazole-7-carboxylic acid], with above 250 °C.
As for `CC(C)c1cccc(C(C)C)c1CNC(=O)n1[nH]c2c(C(=O)O)cccc2c1=O` [Example 72, 2-(2,6-Diisopropyl-benzylcarbamoyl)-3-oxo-2,3-dihydro-1H-indazole-7-carboxylic acid], the figure is above 250 °C.
Consider `O=C(O)c1cccc2[nH]n(C(=O)NCCCCc3ccccc3)c(=O)c12` [Example 75, 3-Oxo-2-(4-phenyl-butylcarbamoyl)-2,3-dihydro-1H-indazole-4-carboxylic acid], for which the melting point was above 250 °C.
Then `O=C(O)c1cccc2[nH]n(C(=O)NCCCCC3CCCCC3)c(=O)c12` [Example 76, 2-(4-Cyclohexyl-butylcarbamoyl)-3-oxo-2,3-dihydro-1H-indazole-4-carboxylic acid], with 196 to 198 °C; and `CCCCCCNC(=O)n1[nH]c2cccc(C(=O)O)c2c1=O` [Example 78, 2-Hexylcarbamoyl-3-oxo-2,3-dihydro-1H-indazole-4-carboxylic acid], with above 250 °C; and `CCc1cccc(C)c1CNC(=O)n1c(=O)c2cccc(C(=O)O)c2n1C` [Example 79, 2-(2-Ethyl-6-methyl-benzylcarbamoyl)-1-methyl-3-oxo-2,3-dihydro-1H-indazole-7-carboxylic acid], with above 250 °C.
On to `CCc1cccc(C)c1CNC(=O)n1c(=O)c2cccc(C(=O)O)c2n1CC` [Example 80, 1-Ethyl-2-(2-ethyl-6-methyl-benzylcarbamoyl)-3-oxo-2,3-dihydro-1H-indazole-7-carboxylic acid], for which the melting point was above 250 °C.
As for `CCCn1c2c(C(=O)O)cccc2c(=O)n1C(=O)NCc1c(C)cccc1CC` [Example 81, 2-(2-Ethyl-6-methyl-benzylcarbamoyl)-3-oxo-1-propyl-2,3-dihydro-1H-indazole-7-carboxylic acid], the figure is above 250 °C; as for `CCc1cccc(C)c1CNC(=O)n1c(=O)c2cccc(C(=O)O)c2n1CC(=O)O` [Example 82, 1-Carboxymethyl-2-(2-ethyl-6-methyl-benzylcarbamoyl)-3-oxo-2,3-dihydro-1H-indazole-7-carboxylic acid], 172 to 174 °C; as for `CCc1cccc(C)c1CNC(=O)n1c(=O)c2cccc(C(=O)O)c2n1CC(=O)OC` [Example 83, 2-(2-Ethyl-6-methyl-benzylcarbamoyl)-1-methoxycarbonylmethyl-3-oxo-2,3-dihydro-1H-indazole-7-carboxylic acid], 220 to 222 °C.
As for `Cc1cccc(C(C)(C)C)c1CNC(=O)n1c(=O)c2cccc(C(=O)O)c2n1C` [Example 97, 2-(2-tert-Butyl-6-methyl-benzylcarbamoyl)-1-methyl-3-oxo-2,3-dihydro-1H-indazole-7-carboxylic acid], the figure is above 250 °C; as for `CCc1cccc(CC)c1CNC(=O)n1c(=O)c2cccc(C(=O)O)c2n1C` [Example 98, 2-(2,6-Diethyl-benzylcarbamoyl)-1-methyl-3-oxo-2,3-dihydro-1H-indazole-7-carboxylic acid], above 250 °C; as for `CCCCCCNC(=O)n1[nH]c2cccc(C(=O)OC)c2c1=O` [Example 99, 2-Hexylcarbamoyl-3-oxo-2,3-dihydro-1H-indazole4-carboxylic acid methyl ester], 63 to 65 °C.
As for `C=CCOC(=O)c1cccc2[nH]n(C(=O)NCCCCCC)c(=O)c12` [Example 100, 2-Hexylcarbamoyl-3-oxo-2,3-dihydro-1H-indazole-4-carboxylic acid allyl ester], the melting point was in the range of 67 to 69 °C.
